Key:
[1] = system: aged-impaired (AI) Long-Evans rats; assay: Morris Water Maze (MWM) retention trial, levetiracetam; assay type: in vivo, rat; conditions: for time spent in the target quadrant (percentage of total swimming time): retention trial 24 hours after training
Experimental: Six aged-impaired (AI) Long-Evans rats (as characterized above) were tested for their memory of new spatial information in the Morris water maze (MWM), under different drug/control treatment conditions (vehicle control and two different dosage levels of levetiracetam). A retention trial was performed after the training trials, as described below. The MWM apparatus consists of a large, circular pool (diameter 1.53 m; height, 0.58 m) filled with water (27° C.) that is made opaque through the addition of non-toxic pigment or some other substance. In the typical “hidden platform” version of the test, rats are trained to find a camouflaged white escape platform (height, 34.5 cm) that is positioned in the center of one quadrant of the maze about 1.0 cm below the water surface. This platform can be retracted to the bottom of the tank or raised to its normal position from outside the maze during behavioral testing. The location of the platform remains constant from trial to trial. Because there are no local cues that mark the position of the platform, the rat's ability to locate it efficiently from any starting position at the perimeter of the pool depends on using information surrounding the maze. The maze is surrounded by black curtains to which white patterns are affixed to provide a configuration of spatial cues. A second platform (height 37.5 cm), with its surface painted black is elevated 2 cm above the water surface during cue training to control for factors unrelated to cognition. The behavior of a rat in the pool is recorded by a camera that is suspended 2.5 m above the center of the pool. The camera is connected to a video tracking system (HVS Image Advanced Tracker VP200) and a PC computer running HVS software developed by Richard Baker of HVS Image, Hampton, UK. […] On each training trial, the rat was released in the maze from one of four equally spaced starting positions around the perimeter of the pool. […] In the retention trial, the time the AI rats spent swimming in the target quadrant is measured and further plotted as a percentage of total swimming time. […]

aMCI subjects = assay: Explicit 3-alternative forced choice task (lure identification); assay type: in vivo, human
From the text: There are various tests known in the art for assessing cognitive function in humans, for example and without limitation, the clinical global impression of change scale (CIBIC-plus scale); the Mini Mental State Exam (MMSE); the Neuropsychiatric Inventory (NPI); the Clinical Dementia Rating Scale (CDR); the Cambridge Neuropsychological Test Automated Battery (CANTAB); the Sandoz Clinical Assessment-Geriatric (SCAG), the Buschke Selective Reminding Test (Buschke and Fuld, 1974); the Verbal Paired Associates subtest; the Logical Memory subtest; the Visual Reproduction sub test of the Wechsler Memory Scale-Revised (WMS-R) (Wechsler, 1997); the Benton Visual Retention Test, or MATRICS consensus neuropsychological test battery which includes tests of working memory, speed of processing, attention, verbal learning, visual learning, reasoning and problem solving and social cognition. See Folstein et al., J Psychiatric Res 12: 189-98, (1975); Robbins et al., Dementia 5: 266-81, (1994); Rey, L'examen clinique en psychologie, (1964); Kluger et al., J Geriatr Psychiatry Neurol 12:168-79, (1999); Marquis et al., 2002 and Masur et al., 1994. Also see Buchanan, R. W., Keefe, R. S. E., Umbricht, D., Green, M. F., Laughren, T., and Marder, S. R. (2011), The FDA-NIMH-MATRICS guidelines for clinical trial design of cognitive-enhancing drugs: what do we know 5 years later? Schizophr. Bull. 37, 1209-1217. Another example of a cognitive test in humans is the explicit 3-alternative forced choice task. […]
(§1) The activity of the subject's medial temporal lobe is measured by functional MRI during the subject's participation in an explicit 3-alternative forced choice task, where participants view novel, repeated and similar (“lure”) stimuli. […]
as §1

## CC[C@@H](C(N)=O)N1CCCC1=O [levetiracetam, (2S)-2-(2-oxopyrrolidin-1-yl)butanamide]
[1]; levetiracetam 5 mg/kg/day i.p., vs vehicle
  time spent in the target quadrant (percentage of total swimming time): did not significantly improve
[1]; levetiracetam 10 mg/kg/day i.p., retention trial
  time spent in the target annulus: effectiveness of the 10 mg/kg/day levetiracetam treatment was also seen
[1]; levetiracetam 10 mg/kg/day i.p.
  time spent in the target quadrant (percentage of total swimming time): approximately 35%
aMCI subjects; levetiracetam 62.5 mg BID, p=0.041
  performance in the explicit 3-alternative forced choice task: improves significantly
aMCI subjects; levetiracetam 125 mg twice a day for two weeks, p=0.039
  performance in the explicit 3-alternative forced choice task: improves significantly
aMCI subjects; levetiracetam 250 mg BID, p=0.2396
  performance in the explicit 3-alternative forced choice task: does not significantly improve

Source: US20220062296A1, “COMBINATIONS OF GABAA ALPHA 5 AGONISTS AND SV2A INHIBITORS AND METHODS OF USING IN THE TREATMENT OF COGNITIVE IMPAIRMENT” (AGENEBIO, INC., priority 2020, published 2022)
